This is an account of results in patent publication US8148373B2, “Compounds” (AstraZeneca AB, priority 2008, dated 2012).

A word on the inhibition: it is how much of the control response was suppressed. A lower inhibition goes with a response near the control.

Assay [1] deals with T1, Adrenergic β2 (H292 cells) (Homo sapiens, UniProt P07550).
T1 construct: endogenous in cells; host or cells: H292 cells
Put plainly: Adrenergic β2 Mediated cAMP Production, single concentration 1 μM. The class given is cell-based. The following applies: percentage of the maximum response generated by 1E-07M formoterol; for activation at 1 µM: NCI-H292, 1 μM compound, read-out: β2 (% effect at 1 μM); for β2 (% effect at 1 μM): 1 μM compound. The method, boiled down:
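cAMP was quantified by AlphaScreen in lysates of H292 cells and reported as a percentage of the 1E-07M formoterol maximum. Before lysis the cells, seeded the previous day, received rolipram (300 μM final) and then test compound at a final 1 μM in 1% DMSO for 60 min at room temperature.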

In assay [2] the target is T2, human muscarinic acetylcholine M3 receptor (M3-ACh) (Homo sapiens, UniProt P20309).
T2 construct: expressed in transfected cells; host or cells: CHO-K1 (Chinese Hamster Ovary) cell membranes
Put plainly: Muscarinic 3 Receptor Binding Assay, % inhibition specific binding at 1 μM. The following applies: 1 μM compound, % inhibition specific [3H]-NMS binding. In a few lines:
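Value is % inhibition of specific [3H]N-methyl scopolamine binding (0.1 nM, quarter Kd) by 1 μM compound, using SPA beads precoated with human M3-expressing CHO-K1 membranes. Buffer HEPES pH 7.4 with MgCl2 and 1% DMSO; 16 h at room temperature; 1 μM atropine sets non-specific binding.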

T2 sequence (P20309 whole entry): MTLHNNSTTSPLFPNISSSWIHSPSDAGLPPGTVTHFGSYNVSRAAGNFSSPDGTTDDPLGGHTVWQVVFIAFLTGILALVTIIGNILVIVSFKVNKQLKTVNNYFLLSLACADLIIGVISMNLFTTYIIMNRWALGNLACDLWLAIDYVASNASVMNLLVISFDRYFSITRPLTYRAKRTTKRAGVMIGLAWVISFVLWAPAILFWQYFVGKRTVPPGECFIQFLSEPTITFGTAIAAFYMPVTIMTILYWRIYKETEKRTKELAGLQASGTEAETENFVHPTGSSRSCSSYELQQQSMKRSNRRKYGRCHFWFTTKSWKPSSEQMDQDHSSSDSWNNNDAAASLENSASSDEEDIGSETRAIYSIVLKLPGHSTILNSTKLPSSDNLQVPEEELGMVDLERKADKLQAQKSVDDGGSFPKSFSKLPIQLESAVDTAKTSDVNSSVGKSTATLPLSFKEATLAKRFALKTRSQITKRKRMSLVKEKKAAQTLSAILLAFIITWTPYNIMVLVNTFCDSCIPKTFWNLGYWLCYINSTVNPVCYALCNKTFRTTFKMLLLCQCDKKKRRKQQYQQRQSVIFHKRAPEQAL
T1 sequence (P07550 whole entry): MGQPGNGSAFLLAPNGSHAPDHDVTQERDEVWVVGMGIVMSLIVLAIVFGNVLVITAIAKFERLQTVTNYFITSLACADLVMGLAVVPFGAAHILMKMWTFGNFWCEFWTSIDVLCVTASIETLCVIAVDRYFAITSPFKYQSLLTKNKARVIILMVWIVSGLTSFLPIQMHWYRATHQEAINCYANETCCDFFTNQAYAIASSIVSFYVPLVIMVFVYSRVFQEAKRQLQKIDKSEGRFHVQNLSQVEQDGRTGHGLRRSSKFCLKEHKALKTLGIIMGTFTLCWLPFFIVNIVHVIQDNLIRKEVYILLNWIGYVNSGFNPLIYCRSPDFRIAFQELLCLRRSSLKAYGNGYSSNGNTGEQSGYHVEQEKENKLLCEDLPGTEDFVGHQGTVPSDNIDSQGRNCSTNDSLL

For the compound `CC(C)c1cc(C(=O)N2CCOC3(CCN(CCOc4ccc(CNC[C@H](O)c5ccc(O)c6[nH]c(=O)sc56)cc4)CC3)C2)no1` [Example 255, (R)-4-hydroxy-7-(1-hydroxy-2-(4-(2-(4-(5-isopropylisoxazole-3-carbonyl)-1-oxa-4,9-diazaspiro[5.5]undecan-9-yl)ethoxy)benzylamino)ethyl) benzo[d]thiazol-2(3H)-one], the activation at 1 µM in assay [1] came out at 66%. This compound yielded an inhibition at 1 µM in assay [2] of 32%.
For `Cc1nc2cc(C(=O)N3CCOC4(CCN(CCOc5ccc(CNC[C@H](O)c6ccc(O)c7[nH]c(=O)sc67)cc5)CC4)C3)ccc2s1` [Example 256, (R)-4-hydroxy-7-(1-hydroxy-2-(4-(2-(4-(2-methylbenzo[d]thiazole-5-carbonyl)-1-oxa-4,9-diazaspiro[5.5]undecan-9-yl)ethoxy)benzylamino)ethyl) benzo[d]thiazol-2(3H)-one], in that order: 76% and 38%.
In the case of `CC(C)(C)c1nc(C(=O)N2CCOC3(CCN(CCOc4ccc(CNC[C@H](O)c5ccc(O)c6[nH]c(=O)sc56)cc4)CC3)C2)cs1` [Example 257, (R)-7-(2-(4-(2-(4-(2-tert-butylthiazole-4-carbonyl)-1-oxa-4,9-diazaspiro[5.5]undecan-9-yl)ethoxy)benzylamino)-1-hydroxyethyl)-4-hydroxy-benzo[d]thiazol-2(3H)-one], the activation at 1 µM in assay [1] was 56%. The same compound showed an inhibition at 1 µM in assay [2] of 36%.
In the case of `O=C(c1csc(C(F)(F)F)n1)N1CCOC2(CCN(CCOc3ccc(CNC[C@H](O)c4ccc(O)c5[nH]c(=O)sc45)cc3)CC2)C1` [Example 258], the “β2 (% effect at 1 μM)” value in assay [1] is given as 55%. The “M3 (% inhibition at 1 μM)” value in assay [2] is on record as 96%.
On to `CCCc1nc(C(=O)N2CCOC3(CCN(CCOc4ccc(CNC[C@H](O)c5ccc(O)c6[nH]c(=O)sc56)cc4)CC3)C2)cs1` [Example 260, (R)-4-hydroxy-7-(1-hydroxy-2-(4-(2-(4-(2-propylthiazole-4-carbonyl)-1-oxa-4,9-diazaspiro[5.5]undecan-9-yl)ethoxy)benzylamino)ethyl) benzo[d]thiazol-2(3H)-one], for which the activation at 1 µM in assay [1] was found to be 56%. The inhibition at 1 µM in assay [2] worked out at 93%.
For `O=C(c1csc(C2CCC2)n1)N1CCOC2(CCN(CCOc3ccc(CNC[C@H](O)c4ccc(O)c5[nH]c(=O)sc45)cc3)CC2)C1` [Example 261, (R)-7-(2-(4-(2-(4-(2-cyclobutylthiazole-4-carbonyl)-1-oxa-4,9-diazaspiro[5.5]undecan-9-yl)ethoxy)benzylamino)-1-hydroxyethyl)-4-hydroxy-benzo[d]thiazol-2(3H)-one], in that order: 70% and 90%.
In the case of `O=C(c1csc(C2CCCC2)n1)N1CCOC2(CCN(CCOc3ccc(CNC[C@H](O)c4ccc(O)c5[nH]c(=O)sc45)cc3)CC2)C1` [Example 262, (R)-7-(2-(4-(2-(4-(2-cyclopentylthiazole-4-carbonyl)-1-oxa-4,9-diazaspiro[5.5]undecan-9-yl)ethoxy)benzylamino)-1-hydroxyethyl)-4-hydroxy-benzo[d]thiazol-2(3H)-one], the activation at 1 µM in assay [1] was 69%. In addition, in assay [2], 1 µM produced 82% inhibition.
In the case of `Cc1cc(C(=O)N2CCOC3(CCN(CCOc4ccc(CNC[C@H](O)c5ccc(O)c6[nH]c(=O)sc56)cc4)CC3)C2)sc1C` [Example 263], in assay [1], the “β2 (% effect at 1 μM)” value was 74%. In addition, in assay [2], the “M3 (% inhibition at 1 μM)” value stood at 37%.
